In PubChem BioAssay (NCI):
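Compound exposure: 48 hours, 5 concentrations, 96-well plates. The concentration for full growth arrest is given as TGI.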

How the values were obtained:
Test in all cases: inhibition of tumour cell growth, NCI panel, 48 h
NCI-H522 lung = system: NCI-H522 lung
U251 CNS = system: U251 CNS
HOP-62 NSCLC = system: HOP-62 NSCLC
LOX IMVI melanoma = system: LOX IMVI melanoma
MDA-MB-231 breast = system: MDA-MB-231 breast
NCI-H23 lung = system: NCI-H23 lung
SF-295 CNS = system: SF-295 CNS
TK-10 renal = system: TK-10 renal
CCRF-CEM leukemia = system: CCRF-CEM leukemia
NCI-H226 lung = system: NCI-H226 lung
SN12C renal = system: SN12C renal
M14 melanoma = system: M14 melanoma
SK-MEL-28 melanoma = system: SK-MEL-28 melanoma
SF-539 CNS = system: SF-539 CNS
OVCAR-5 ovarian = system: OVCAR-5 ovarian
COLO 205 colon = system: COLO 205 colon
HS 578T breast = system: HS 578T breast
UACC-257 melanoma = system: UACC-257 melanoma
MCF7 breast = system: MCF7 breast
MDA-MB-435 = system: MDA-MB-435
SK-OV-3 ovarian = system: SK-OV-3 ovarian
EKVX NSCLC = system: EKVX NSCLC
HCT-15 colon = system: HCT-15 colon
786-0 renal = system: 786-0 renal
HCT-116 colon = system: HCT-116 colon
A498 renal = system: A498 renal
OVCAR-8 ovarian = system: OVCAR-8 ovarian
RPMI-8226 leukemia = system: RPMI-8226 leukemia
NCI-H460 lung = system: NCI-H460 lung
BT-549 breast = system: BT-549 breast
SW-620 colon = system: SW-620 colon
SNB-75 CNS = system: SNB-75 CNS
SF-268 CNS = system: SF-268 CNS
UO-31 renal = system: UO-31 renal
KM12 colon = system: KM12 colon
A549 NSCLC = system: A549 NSCLC
HL-60(TB) leukemia = system: HL-60(TB) leukemia
SK-MEL-2 melanoma = system: SK-MEL-2 melanoma
DU-145 prostate = system: DU-145 prostate
ACHN renal = system: ACHN renal
RXF 393 renal = system: RXF 393 renal
K-562 leukemia = system: K-562 leukemia
HCC-2998 colon = system: HCC-2998 colon
SK-MEL-5 melanoma = system: SK-MEL-5 melanoma
HT29 colon = system: HT29 colon
UACC-62 melanoma = system: UACC-62 melanoma
NCI/ADR-RES ovarian = system: NCI/ADR-RES ovarian
MDA-N = system: MDA-N
MOLT-4 leukemia = system: MOLT-4 leukemia
MALME-3M melanoma = system: MALME-3M melanoma
SNB-19 CNS = system: SNB-19 CNS
OVCAR-3 ovarian = system: OVCAR-3 ovarian
OVCAR-4 ovarian = system: OVCAR-4 ovarian
IGROV1 ovarian = system: IGROV1 ovarian
SR leukemia = system: SR leukemia
T-47D breast = system: T-47D breast
CAKI-1 renal = system: CAKI-1 renal
PC-3 prostate = system: PC-3 prostate
HOP-92 NSCLC = system: HOP-92 NSCLC

CN(C)CCn1c(=O)c2ccc3c4c(nn3CCN(C)C)c3ccccc3n(c1=O)c24
TGI (NCI-H522 lung): 329 nM | TGI (U251 CNS): 1430 nM | TGI (HOP-62 NSCLC): 1880 nM | TGI (LOX IMVI melanoma): 1380 nM | TGI (MDA-MB-231 breast): 1960 nM | TGI (NCI-H23 lung): 1420 nM | TGI (SF-295 CNS): 849 nM | TGI (TK-10 renal): 2350 nM | TGI (CCRF-CEM leukemia): 10.9 µM | TGI (NCI-H226 lung): 2920 nM | TGI (SN12C renal): 1590 nM | TGI (M14 melanoma): 1180 nM | TGI (SK-MEL-28 melanoma): 6.46 µM | TGI (SF-539 CNS): 2200 nM | TGI (OVCAR-5 ovarian): 2890 nM | TGI (COLO 205 colon): 985 nM | TGI (HS 578T breast): 12.5 µM | TGI (UACC-257 melanoma): 3.24 µM | TGI (MCF7 breast): 1050 nM | TGI (MDA-MB-435): 1390 nM | TGI (SK-OV-3 ovarian): 3.43 µM | TGI (EKVX NSCLC): 112 nM | TGI (HCT-15 colon): 1390 nM | TGI (786-0 renal): 961 nM | TGI (HCT-116 colon): 2220 nM | TGI (A498 renal): 1340 nM | TGI (OVCAR-8 ovarian): 288 nM | TGI (RPMI-8226 leukemia): 4.07 µM | TGI (NCI-H460 lung): 417 nM | TGI (BT-549 breast): 5.5 µM | TGI (SW-620 colon): 32 µM | TGI (SNB-75 CNS): 145 nM | TGI (SF-268 CNS): 5.12 µM | TGI (UO-31 renal): 2420 nM | TGI (KM12 colon): 9.91 µM | TGI (A549 NSCLC): 4.38 µM | TGI (HL-60(TB) leukemia): 2750 nM | TGI (SK-MEL-2 melanoma): 1170 nM | TGI (DU-145 prostate): 3.54 µM | TGI (ACHN renal): 765 nM | TGI (RXF 393 renal): 1260 nM | TGI (K-562 leukemia): 2490 nM | TGI (HCC-2998 colon): 534 nM | TGI (SK-MEL-5 melanoma): 1420 nM | TGI (HT29 colon): 2230 nM | TGI (UACC-62 melanoma): 1340 nM | TGI (NCI/ADR-RES ovarian): 2580 nM | TGI (MDA-N): 970 nM | TGI (MOLT-4 leukemia): 58.1 nM | TGI (MALME-3M melanoma): 2130 nM | TGI (SNB-19 CNS): 3.75 µM | TGI (OVCAR-3 ovarian): 2630 nM | TGI (OVCAR-4 ovarian): 1710 nM | TGI (IGROV1 ovarian): 1920 nM | TGI (SR leukemia): 1850 nM | TGI (T-47D breast): 3.74 µM | TGI (CAKI-1 renal): 520 nM | TGI (PC-3 prostate): 3.21 µM

CN1CC2CC(C1)c1cccc(=O)n1C2 (stereo unspecified)
TGI (NCI-H522 lung): > 100000 nM | TGI (U251 CNS): > 100000 nM | TGI (HOP-62 NSCLC): > 100000 nM | TGI (LOX IMVI melanoma): > 100000 nM | TGI (MDA-MB-231 breast): > 100000 nM | TGI (NCI-H23 lung): > 100000 nM | TGI (SF-295 CNS): > 100000 nM | TGI (TK-10 renal): > 100000 nM | TGI (SN12C renal): > 100000 nM | TGI (M14 melanoma): > 100000 nM | TGI (OVCAR-5 ovarian): > 100000 nM | TGI (COLO 205 colon): > 100000 nM | TGI (HS 578T breast): > 100 µM | TGI (UACC-257 melanoma): > 100 µM | TGI (MCF7 breast): > 100000 nM | TGI (MDA-MB-435): > 100000 nM | TGI (SK-OV-3 ovarian): > 100 µM | TGI (EKVX NSCLC): > 100000 nM | TGI (HCT-15 colon): > 100000 nM | TGI (786-0 renal): > 100000 nM | TGI (HCT-116 colon): > 100000 nM | TGI (OVCAR-8 ovarian): > 100000 nM | TGI (NCI-H460 lung): > 100000 nM | TGI (BT-549 breast): > 100 µM | TGI (SNB-75 CNS): > 100000 nM | TGI (SF-268 CNS): > 100 µM | TGI (UO-31 renal): > 100000 nM | TGI (KM12 colon): > 100 µM | TGI (A549 NSCLC): > 100 µM | TGI (SK-MEL-2 melanoma): > 100000 nM | TGI (DU-145 prostate): > 100 µM | TGI (ACHN renal): > 100000 nM | TGI (RXF 393 renal): > 100000 nM | TGI (HOP-92 NSCLC): > 100 µM | TGI (HCC-2998 colon): > 100000 nM | TGI (SK-MEL-5 melanoma): > 100000 nM | TGI (HT29 colon): > 100000 nM | TGI (UACC-62 melanoma): > 100000 nM | TGI (NCI/ADR-RES ovarian): > 100000 nM | TGI (MDA-N): > 100000 nM | TGI (MALME-3M melanoma): > 100000 nM | TGI (SNB-19 CNS): > 100 µM | TGI (OVCAR-3 ovarian): > 100000 nM | TGI (OVCAR-4 ovarian): > 100000 nM | TGI (IGROV1 ovarian): > 100000 nM | TGI (T-47D breast): > 100 µM | TGI (CAKI-1 renal): > 100000 nM | TGI (PC-3 prostate): > 100 µM
